# Tests used:
# Assay in all cases: relative viability (nuclei count vs DMSO), 5 days (fraction); higher = more cells survive
# ALW-II-49-7 + Trametinib = compound: Cc1ccc(C(=O)Nc2cccc(C(F)(F)F)c2)cc1Nc1cncc(C(N)=O)c1 [ALW-II-49-7] + CC(=O)Nc1cccc(-n2c(=O)n(C3CC3)c(=O)c3c(Nc4ccc(I)cc4F)n(C)c(=O)c(C)c32)c1 [Trametinib] (partner 0.02 µM)
# In short: (§1)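 For relative viability, nuclei counts in treated wells were divided by those in vehicle wells. Lung cancer cell lines had been pin-tool dosed in 1536-well plates the day after seeding and cultured for 5 days, then fixed and stained in one step (final 0.05% Triton X-100, 1% formaldehyde, 1 ug/ml Hoechst) and imaged at 4×. Doses were one drug alone or a fixed anchor-drug dose plus five library-drug doses (not always all listed) in √10 steps, and values are duplicate-plate medians.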
# XMD13-2 + AZD7762 = compound: C1CC1C(=O)NC2=NNC3=C2C=CC(=C3)C4=CC(=CC=C4)C(=O)NC5CC5 [XMD13-2] + NC(=O)Nc1cc(-c2cccc(F)c2)sc1C(=O)N[C@H]1CCCNC1 [AZD7762] (partner 0.2 µM)
# In short: as §1
# XMD13-2 + Linsitinib = compound: C1CC1C(=O)NC2=NNC3=C2C=CC(=C3)C4=CC(=CC=C4)C(=O)NC5CC5 [XMD13-2] + C[C@]1(O)C[C@@H](c2nc(-c3ccc4ccc(-c5ccccc5)nc4c3)c3c(N)nccn32)C1 [Linsitinib] (partner 1 µM)
# In short: as §1
# Dasatinib + Navitoclax = compound: Cc1nc(Nc2ncc(C(=O)Nc3c(C)cccc3Cl)s2)cc(N2CCN(CCO)CC2)n1 [Dasatinib] + CC1(C)CCC(c2ccc(Cl)cc2)=C(CN2CCN(c3ccc(C(=O)NS(=O)(=O)c4ccc(N[C@H](CCN5CCOCC5)CSc5ccccc5)c(S(=O)(=O)C(F)(F)F)c4)cc3)CC2)C1 [Navitoclax] (partner 0.5 µM)
# In short: as §1
Cell Line,relative viability (ALW-II-49-7 + Trametinib; first compound 0.08 µM),relative viability (ALW-II-49-7 + Trametinib; first compound 0.253 µM),relative viability (ALW-II-49-7 + Trametinib; first compound 2.53 µM),relative viability (ALW-II-49-7 + Trametinib; first compound 8 µM),relative viability (XMD13-2 + AZD7762; first compound 0.05 µM),relative viability (XMD13-2 + AZD7762; first compound 0.1581 µM),relative viability (XMD13-2 + AZD7762; first compound 0.5 µM),relative viability (XMD13-2 + AZD7762; first compound 1.581 µM),relative viability (XMD13-2 + AZD7762; first compound 5 µM),relative viability (XMD13-2 + Linsitinib; first compound 0.05 µM),relative viability (XMD13-2 + Linsitinib; first compound 0.1581 µM),relative viability (XMD13-2 + Linsitinib; first compound 0.5 µM),relative viability (XMD13-2 + Linsitinib; first compound 1.581 µM),relative viability (XMD13-2 + Linsitinib; first compound 5 µM),relative viability (ALW-II-49-7 + Trametinib; first compound 0.8 µM),relative viability (Dasatinib + Navitoclax; first compound 0.005 µM),relative viability (Dasatinib + Navitoclax; first compound 0.01581 µM),relative viability (Dasatinib + Navitoclax; first compound 0.05 µM),relative viability (Dasatinib + Navitoclax; first compound 0.1581 µM),relative viability (Dasatinib + Navitoclax; first compound 0.5 µM)
SW 900,0.864,0.869,0.727,0.874,0.741,0.587,0.679,0.467,0.835,,,,,,,,,,,
LCLC-103H,0.667,0.748,0.712,0.677,0.774,0.778,0.768,0.818,0.85,1,1.1,1.25,1.18,1.14,0.735,,,,,
IA-LM,,,,,,,,,,0.627,0.56,0.582,0.683,0.713,,0.878,0.923,1.04,0.876,0.665
SK-MES-1,0.573,0.628,0.6,0.447,,,,,,1.11,1.03,1.01,1.01,1.16,0.562,1.18,,1.41,0.802,0.429
Calu-6,,,,,,,,,,0.949,0.996,,0.912,0.913,,0.762,0.759,0.646,0.571,0.589
SK-LU-1,0.569,0.571,0.408,0.442,,,,,,1.1,1.19,1.45,0.929,1.14,0.486,0.812,0.57,0.301,0.226,0.154
NCI-H2023,0.468,0.557,0.503,0.53,,,,,,0.697,0.684,0.572,0.649,0.854,0.69,0.978,0.854,0.795,0.778,0.488
NCI-H1650,0.438,0.688,0.666,0.78,,,,,,,,,,,0.557,1.26,0.934,0.83,0.506,0.387
SW 1573,0.561,0.556,0.637,0.491,,,,,,0.82,0.745,0.849,0.71,0.577,0.611,0.906,0.899,0.946,0.473,0.481
NCI-H661,0.529,0.606,0.567,0.53,,,,,,0.67,0.708,0.58,0.555,0.398,0.521,,,,,
NCI-H2228,0.413,0.408,0.521,0.373,,,,,,0.735,0.83,0.768,0.546,0.622,0.406,0.845,0.644,1.44,0.475,0.249
COR-L23,0.576,0.514,0.566,0.43,,,,,,1.01,0.917,1.02,0.848,0.872,0.648,1.01,0.85,0.797,0.55,0.347
NCI-H2342,0.709,0.817,0.69,0.786,0.494,0.566,0.516,0.455,0.598,,,,,,0.828,,,,,
NCI-H1299,,,,,,,,,,0.982,1.03,1.15,0.997,1.03,,1.04,1.05,1.1,0.6,0.31
NCI-H520,0.62,0.661,0.552,0.519,,,,,,1.09,0.975,1.01,0.881,0.492,0.53,0.946,0.644,0.555,0.273,0.27
NCI-H522,0.883,0.665,0.82,0.853,1.08,0.728,0.7,0.737,0.692,,,,,,0.867,,,,,
NCI-H2170,0.925,0.937,0.924,0.854,0.957,1,1,0.884,0.859,,,,,,0.977,0.545,0.473,0.572,0.267,0.232
NCI-H1648,0.522,0.317,0.347,0.449,0.604,,0.564,0.633,0.565,,,,,,0.462,,,,,
NCI-H1703,,,,,0.124,0.131,0.125,,0.116,0.637,1.23,0.805,,0.74,,0.567,0.38,0.238,0.17,0.146
ABC-1,,,,,,0.897,0.531,,0.745,0.918,0.874,1.04,0.704,0.86,,,,,,
NCI-H650,0.876,1.16,0.996,0.929,1.22,1.02,1.14,0.847,1.43,0.983,0.857,0.899,0.718,0.865,0.993,,,,,
ChaGo-K-1,0.889,0.939,0.847,0.85,0.956,0.97,0.892,0.924,0.881,,,,,,0.919,0.618,1.08,0.965,0.909,0.923
COR-L 105,0.443,0.401,0.453,0.396,,,,,,1.04,1.13,1,0.875,0.797,0.43,0.588,0.49,0.52,0.368,0.278
NCI-H2009,0.247,0.32,0.341,0.266,,,,,,1.19,1.19,1.13,1.2,1.16,0.299,1.23,1.12,1.3,0.761,0.235
